# Results taken from patent US12180226B2, “Spirotricycle RIPK1 inhibitors and methods of uses thereof” (Merck Sharp & Dohme LLC, priority 2021, dated 2024).
# Counter-ions that a name gives are not always drawn.
# Target: RIPK1 (recombinant GST-RIPK1 kinase domain, residues 1-327) (Homo sapiens (Human), UniProt Q13546)
# Test: RIPK1-ADP-Glo Enzymatic Assay
# Assay type: biochemical
# Settings: ADP-Glo; 25 nM GST-RIPK1, 300 μM ATP; assay lower limit ~25 nM; read-out: RIPK1 V0 Ec50
# Summary of the method: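 Inhibition of ADP formation was measured after compound and enzyme (25 nM) were pre-incubated for 30 minutes at ambient temperature and the kinase reaction ran for 150 minutes at 300 μM ATP with dephosphorylated MBP substrate. EC50 values come from ten-point curves fitted non-linearly.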
# Sequence of RIPK1 (recombinant GST-RIPK1 kinase domain, residues 1-327) (Q13546 1-327): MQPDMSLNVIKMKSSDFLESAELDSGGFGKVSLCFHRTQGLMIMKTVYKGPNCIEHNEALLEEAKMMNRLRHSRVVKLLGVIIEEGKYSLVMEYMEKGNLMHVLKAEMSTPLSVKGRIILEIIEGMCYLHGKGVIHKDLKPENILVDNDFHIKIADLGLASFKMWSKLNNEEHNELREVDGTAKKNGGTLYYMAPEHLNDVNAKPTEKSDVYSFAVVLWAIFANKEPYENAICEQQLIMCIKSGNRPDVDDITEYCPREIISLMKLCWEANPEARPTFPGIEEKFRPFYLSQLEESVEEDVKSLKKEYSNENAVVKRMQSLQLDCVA
row,EC50,SMILES
1,< 0.025 µM,"Cc1nc(N2CCC3(CC2)O[C@@H]2CC[C@@H](c4ccccc4)N2C3=O)ncc1-c1ncco1 [Example 21.11, (5′S,7a′R)-1-[4-methyl-5-(1,3-oxazol-2-yl)pyrimidin-2-yl]-5′-phenyltetrahydro-3′H-spiro[piperidine-4,2′-pyrrolo[2,1-b][1,3]oxazol]-3′-one]"
2,0.0253 µM,"N#Cc1ccc(N2CC3(C2)O[C@@H]2CC[C@@H](c4ccccc4)N2C3=O)c2ccnn12 [Example 13.21, 4-((5′S,7a′R)-3′-oxo-5′-phenyltetrahydro-3′H-spiro[azetidine-3,2′-pyrrolo[2,1-b]oxazol]-1-yl)pyrazolo[1,5-a]pyridine-7-carbonitrile, TFA salt]"
3,< 0.025 µM,"COc1nc(N2CCC3(CC2)O[C@@H]2CC[C@@H](c4ccccc4)N2C3=O)ncc1-c1ncco1 [Example 21.10, (5′S,7a′R)-1-[4-methoxy-5-(1,3-oxazol-2-yl)pyrimidin-2-yl]-5′-phenyltetrahydro-3′H-spiro[piperidine-4,2′-pyrrolo[2,1-b][1,3]oxazol]-3′-one]"
4,< 0.025 µM,"O=C(c1cccc(F)c1)N1CCC2(CC1)O[C@@H]1CC[C@@H](c3cc(F)cc(F)c3)N1C2=O [Example 7.5, (5′S,7a′R)-5′-(3,5-difluorophenyl)-1-(3-fluorobenzene-1-carbonyl)tetrahydro-3′H-spiro[piperidine-4,2′-pyrrolo[2,1-b][1,3]oxazol]-3′-one]"
5,0.0726 µM,"CS(=O)(=O)C1CN(C(=O)c2nc(N3CCC4(CC3)O[C@@H]3CC[C@@H](c5cc(F)cc(F)c5)N3C4=O)ncc2F)C1 [Example 7.9, (5′S,7a′R)-5′-(3,5-difluorophenyl)-1-{5-fluoro-4-[3-(methylsulfonyl)azetidine-1-carbonyl]pyrimidin-2-yl}tetrahydro-3′H-spiro[piperidine-4,2′-pyrrolo[2,1-b][1,3]oxazol]-3′-one]"
6,0.025 µM,"COc1cccc([C@@H]2CC[C@H]3OC4(CCN(c5ccc(C#N)c6ncnn56)CC4)C(=O)N32)c1 [Example 20.2, 5-[(5′S,7a′R)-5′-(3-methoxyphenyl)-3′-oxotetrahydro-1H,3′H-spiro[piperidine-4,2′-pyrrolo[2,1-b][1,3]oxazol]-1-yl][1,2,4]triazolo[1,5-a]pyridine-8-carbonitrile]"

# Further lines, the compound ahead of its results:
row,SMILES,EC50
1,"N#Cc1cnc(N2CCC3(CC2)O[C@@H]2CC[C@@H](c4ccccc4)N2C3=O)n2ncnc12 [Example 4.241, 5-[(5′S,7a′R)-3′-oxo-5′-phenyltetrahydro-1H,3′H-spiro[piperidine-4,2′-pyrrolo[2,1-b] [1,3]oxazol]-1-yl][1,2,4]triazolo[1,5-c] pyrimidine-8-carbonitrile]",< 0.025 µM
2,"N#Cc1ccnc(N2CCC3(CC2)O[C@@H]2CC[C@@H](c4cc(F)cc(F)c4)N2C3=O)n1 [Example 4.12, 2-[(5′S,7a′R)-5′-(3,5-difluorophenyl)-3′-oxotetrahydro-1H,3′H-spiro[piperidine-4,2′-pyrrolo[2,1-b] [1,3]oxazol]-1-yl]pyrimidine-4-carbonitrile]",< 0.025 µM
3,"O=C(c1nnn2ccccc12)N1CCC2(CC1)O[C@@H]1CC[C@@H](c3cc(F)cc(F)c3)N1C2=O [Example 5.66, (5′S,7a′R)-1-([1,2,3]-triazolo-[1,5-a]pyridine-3-carbonyl)-5′-(3,5-difluoro-phenyl)tetrahydro-3′H-spiro[piperidine-4,2′-pyrrolo[2,1-b]oxazol]-3′-one]",0.0811 µM
4,"NC(=O)c1ccc(N2CCC3(CC2)O[C@@H]2CC[C@@H](c4ccccc4F)N2C3=O)n2ncnc12 [Example 4.151, 5-[(5′S,7a′R)-5′-(2-fluorophenyl)-3′-oxotetrahydro-1H,3′H-spiro[piperidine-4,2′-pyrrolo[2,1-b] [1,3]oxazol]-1-yl][1,2,4]triazolo[1,5-a] pyridine-8-carboxamide]",< 0.025 µM
5,"O=C1N2[C@@H](CC[C@H]2c2cncc(F)c2)OC12CCN(c1ccnc3c(F)cnn13)CC2 [Example 4.84, (5′S,7a′R)-1-(3-fluoropyrazolo[1,5-a]pyrimidin-7-yl)-5′-(5-fluoropyridin-3-yl)tetrahydro-3′H-spiro[piperidine-4,2′-pyrrolo[2,1-b]oxazol]-3′-one, TFA salt]",0.0293 µM
6,"N#CN1CCC2(CC1)O[C@@H]1CC[C@@H](c3cc(F)cc(F)c3)N1C2=O [Example 4.48, (5′S,7a′R)-5′-(3,5-difluorophenyl)-3′-oxotetrahydro-1H,3′H-spiro[piperidine-4,2′-pyrrolo[2,1-b] [1,3]oxazole]-1-carbonitrile]",0.15 µM
7,"O=C(c1ccoc1C(F)(F)F)N1CCC2(CC1)O[C@@H]1CC[C@@H](c3cc(F)cc(F)c3)N1C2=O [Example 6.67, (5′S,7a′R)-5′-(3,5-difluorophenyl)-1-[2-(trifluoromethyl)-furan-3-carbonyl]-tetrahydro-3′H-spiro [piperidine-4,2′-pyrrolo[2,1-b][1,3]-oxazol]-3′-one]",0.05 µM
8,"O=C1N2[C@H](CC[C@H]2c2cccc(F)c2)OC12CCN(c1ccnc3c(F)cnn13)CC2 [Example 4.15, (5′S,7a′S)-5′-(3-fluorophenyl)-1-(3-fluoropyrazolo[1,5-a]pyrimidin-7-yl)tetrahydro-3′H-spiro[piperidine-4,2′-pyrrolo[2,1-b] [1,3]oxazol]-3′-one]",< 0.025 µM
9,"O=C(c1ccsc1-c1ncccn1)N1CCC2(CC1)O[C@@H]1CC[C@@H](c3cc(F)cc(F)c3)N1C2=O [Example 6.36, (5′S,7a′R)-5′-(3,5-difluorophenyl)-1-[2-(pyrimidin-2-yl)thio-phene-3-carbonyl] tetrahydro-3′H-spiro [piperidine-4,2′-pyrrolo[2,1-b][1,3]oxazol]-3′-one]",0.851 µM
10,"Cc1cn(-c2cc(N3CCC4(CC3)O[C@@H]3CC[C@@H](c5ccccc5)N3C4=O)ncn2)cn1 [Example 4.172, (5′S,7a′R)-1-[6-(4-methyl-1H-imidazol-1-yl)pyrimidin-4-yl]-5′-phenyltetrahydro-3′H-spiro[piperidine-4,2′-pyrrolo[2,1-b] [1,3]oxazol]-3′-one]",0.0252 µM
11,"N#Cc1cnc(N2CCC3(CC2)O[C@@H]2CC[C@@H](c4cc(F)cc(F)c4)N2C3=O)cc1F [Example 4.75, 6-[(5′S,7a′R)-5′-(3,5-difluorophenyl)-3′-oxotetrahydro-1H,3′H-spiro[piperidine-4,2′-pyrrolo[2,1-b] [1,3]oxazol]-1-yl]-4-fluoropyridine-3-carbonitrile]",< 0.025 µM
12,"O=C(c1noc2c1CCCC2)N1CCC2(CC1)O[C@@H]1CC[C@@H](c3cc(F)cc(F)c3)N1C2=O [Example 6.17, (5′S,7a′R)-5′-(3,5-difluorophenyl)-1-(4,5,6,7-tetrahydro-1,2-benoxazole-3-carbonyl)tetrahydro-3′H-spiro[piperidine-4,2′-pyrrolo[2,1-b] [1,3]oxazol]-3′-one]",0.173 µM
13,"O=C1N2[C@@H](CC[C@H]2c2ccccc2)OC12CCN(c1ncnc3ccnn13)CC2F (single isomer, unassigned) [Example 4.98, (3[S or R],4[R or S], 5′S,7a′R)-3-fluoro-5′-phenyl-1-(pyrazolo [1,5-a][1,3,5]triazin-4-yl)tetrahydro-3′H-spiro[piperidine-4,2′-pyrrolo[2,1-b]oxazol]-3′-one]",0.0363 µM
14,"O=C(c1cccc(C2CC2)c1)N1CCC2(CC1)O[C@@H]1CC[C@@H](c3cc(F)cc(F)c3)N1C2=O [Example 5.62, (5′S,7a′R)-1-(3-cyclo-propylbenzoyl)-5′-(3,5-difluorophenyl)tetrahydro-3′H-spiro[piperidine-4,2′-pyrrolo[2,1-b]oxazol]-3′-one]",< 0.025 µM
